Laboratory results: patent US20150344540A1, “NOVEL GLP-1 RECEPTOR AGONISTS WITH CHOLESTEROL EFFLUX ACTIVITY” (NOVO NORDISK A/S, priority 2012, published 2015)
Where a SMILES comes first, the peptide text is derived from it. [ ]: non-standard residue; d: D form. Aib = CC(C)(N)C(=O)O

Tested on: Mouse monocyte/macrophage cell line, RAW 264.7
Assay: Cholesterol efflux assay (3H-cholesterol, macrophage cell line)
Assay type: cell-based
Settings: RAW 264.7, 4 hrs incubation, 0.1% human serum albumin; for 4 h Cholesterol Efflux Emax: ABCA1-mediated efflux

SMILES: CC[C@H](C)[C@H](NC(=O)[C@H](Cc1ccccc1)NC(=O)[C@H](CCC(=O)O)NC(=O)[C@H](CCCNC(=N)N)NC(=O)[C@@H](NC(=O)[C@H](C)NC(=O)[C@H](CCC(=O)O)NC(=O)CNC(=O)[C@H](CCC(=O)O)NC(=O)[C@H](CCSC)NC(=O)[C@H](CCC(N)=O)NC(=O)[C@H](CCCCN)NC(=O)[C@H](CO)NC(=O)[C@H](CC(C)C)NC(=O)[C@H](CC(=O)O)NC(=O)[C@H](CO)NC(=O)[C@@H](NC(=O)[C@H](Cc1ccccc1)NC(=O)[C@@H](NC(=O)CNC(=O)[C@H](CCC(=O)O)NC(=O)C(C)(C)NC(=O)[C@@H](N)Cc1c[nH]cn1)[C@@H](C)O)[C@@H](C)O)C(C)C)C(=O)N[C@@H](CCC(=O)O)C(=O)N[C@@H](Cc1c[nH]c2ccccc12)C(=O)N[C@@H](CC(C)C)C(=O)N[C@@H](CCCCN)C(=O)N[C@@H](CC(N)=O)C(=O)N[C@@H](CCCCN)C(=O)NC(C)(C)C(=O)N[C@@H](CC(C)C)C(=O)N[C@@H](CCC(=O)O)C(=O)N[C@@H](Cc1ccccc1)C(=O)N[C@@H](CC(C)C)C(=O)N[C@@H](CCC(=O)O)C(=O)N[C@@H](CC(C)C)C(=O)N[C@@H](CC(C)C)C(N)=O [Compound 2, [Aib2, Glv16,Glu21,Lys29,Aib30,Leu31,Glu32,Phe33,Leu34,Glu35,Leu36,Leu371-Exendin-4-(1-37)-peptide amide] (H-H[Aib]EGTFTSDLSKQMEGEAVREFIEWLKNK[Aib]LEFLELL-NH2; N-terminus assumed)
- 4 h Cholesterol Efflux Emax: 83%

SMILES: CC[C@H](C)[C@H](NC(=O)[C@H](Cc1ccccc1)NC(=O)[C@H](CCC(=O)O)NC(=O)[C@H](CCCCN)NC(=O)[C@H](C)NC(=O)[C@H](C)NC(=O)[C@H](CCC(N)=O)NC(=O)CNC(=O)[C@H](CCC(=O)O)NC(=O)[C@H](CC(C)C)NC(=O)[C@H](Cc1ccc(O)cc1)NC(=O)[C@H](CO)NC(=O)[C@H](CO)NC(=O)[C@@H](NC(=O)[C@H](CC(=O)O)NC(=O)[C@H](CO)NC(=O)[C@@H](NC(=O)[C@H](Cc1ccccc1)NC(=O)[C@@H](NC(=O)CNC(=O)[C@H](CCC(=O)O)NC(=O)[C@H](C)NC(=O)[C@@H](N)Cc1c[nH]cn1)[C@@H](C)O)[C@@H](C)O)C(C)C)C(=O)N[C@@H](C)C(=O)N[C@@H](Cc1c[nH]c2ccccc12)C(=O)N[C@@H](CC(C)C)C(=O)N[C@H](C(=O)N[C@@H](CCCCN)C(=O)NCC(=O)N[C@@H](CCCNC(=N)N)C(=O)NCC(=O)O)C(C)C [GLP-1(7-37), reference compound]
- 4 h Cholesterol Efflux Emax: <10%

SMILES: CC[C@H](C)[C@H](NC(=O)[C@H](Cc1ccccc1)NC(=O)[C@H](CCC(=O)O)NC(=O)[C@H](CCCCN)NC(=O)[C@@H](NC(=O)[C@H](C)NC(=O)[C@H](CCC(=O)O)NC(=O)CNC(=O)[C@H](CCC(=O)O)NC(=O)[C@H](CC(C)C)NC(=O)[C@H](Cc1ccc(O)cc1)NC(=O)[C@H](CO)NC(=O)[C@H](CO)NC(=O)[C@@H](NC(=O)[C@H](CC(=O)O)NC(=O)[C@H](CO)NC(=O)[C@@H](NC(=O)[C@H](Cc1ccccc1)NC(=O)[C@@H](NC(=O)CNC(=O)[C@H](CCC(=O)O)NC(=O)C(C)(C)NC(=O)[C@@H](N)Cc1c[nH]cn1)[C@@H](C)O)[C@@H](C)O)C(C)C)C(C)C)C(=O)N[C@@H](C)C(=O)N[C@@H](Cc1c[nH]c2ccccc12)C(=O)N[C@@H](CC(C)C)C(=O)N[C@H](C(=O)N[C@@H](CCC(=O)O)C(=O)N[C@@H](CCCCN)C(=O)NC(C)(C)C(=O)N[C@@H](CCCCN)C(=O)N[C@@H](CCC(=O)O)C(=O)N[C@@H](Cc1ccccc1)C(=O)N[C@@H](CC(C)C)C(=O)N[C@@H](CCC(=O)O)C(=O)N[C@@H](CCCCN)C(=O)N[C@H](C(=O)N[C@@H](CCCCN)C(=O)N[C@@H](CCC(=O)O)C(=O)N[C@@H](Cc1ccccc1)C(=O)O)C(C)C)C(C)C [Compound 97]
- 4 h Cholesterol Efflux Emax: 125%
- EC50 (read-out: 4 h Cholesterol Efflux EC50, ABCA1-mediated efflux (CPT-cAMP induced minus non-induced)): 410 nM
